Measurements as given in the supplement of paper PMC12698765.
Structures can show the parent of a compound that is named as a salt. ± gives the standard deviation of the averaged measurements.

What was measured:
[1] = test system: 409B2 hiPSC (iCRISPR Cas9, FRMD7 editing); assay: MMEJ-attributed deletion frequency relative to solvent control (fold (ratio to mock)); higher = more MMEJ outcomes
Experimental: (§1)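 Subset screen of 55 drugs tested at 5 concentrations around the effective screening dose, in 409B2 iCRISPR Cas9 hiPSCs editing FRMD7 with a ssDNA donor. Drugs were applied for 24 h. Viability was read by resazurin and editing outcomes by amplicon sequencing (HDR, NHEJ <2 bp microhomology, MMEJ ≥2 bp microhomology). Values are relative to solvent mock controls; two biological replicates.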

[2] = test system: 409B2 hiPSC (iCRISPR Cas9, FRMD7 editing); assay: HDR (precise edit) frequency relative to solvent control (fold (ratio to mock)); higher = more homology-directed repair outcomes
Experimental: as §1

[3] = test system: 409B2 hiPSC (iCRISPR Cas9, FRMD7 editing); assay: NHEJ-attributed indel frequency relative to solvent control (fold (ratio to mock)); higher = more NHEJ outcomes
Experimental: as §1

[4] = test system: 409B2 hiPSC (iCRISPR Cas9, FRMD7 editing); assay: cell survival relative to solvent control (fold (ratio to mock)); higher = more surviving cells
Experimental: as §1

## O=C1NC(=O)[C@@H](c2cn3c4c(cccc24)CCC3)[C@@H]1c1c[nH]c2ccccc12 [Tivantinib (ARQ 197)] (in DMSO)
[1]; 200 nM
  MMEJ-attributed deletion frequency: 0.915 ± 0.074
[1]; 500 nM
  MMEJ-attributed deletion frequency: 0.98 ± 0.025
[1]; 1000 nM
  MMEJ-attributed deletion frequency: 1 ± 0.088
[1]; 2000 nM
  MMEJ-attributed deletion frequency: 1.48 ± 0.36
[1]; 5000 nM
  MMEJ-attributed deletion frequency: 0.786 ± 0.051
[2]; 200 nM
  HDR: 1.01 ± 0.089
[2]; 500 nM
  HDR: 1.05 ± 0.015
[2]; 1000 nM
  HDR: 0.897 ± 0.1
[2]; 2000 nM
  HDR: 0.507 ± 0.081
[2]; 5000 nM
  HDR: 0.281 ± 0.0069
[3]; 200 nM
  NHEJ-attributed indel frequency: 0.949 ± 0.045
[3]; 500 nM
  NHEJ-attributed indel frequency: 1.01 ± 0.025
[3]; 1000 nM
  NHEJ-attributed indel frequency: 1.115 ± 0.0054
[3]; 2000 nM
  NHEJ-attributed indel frequency: 1 ± 0.05
[3]; 5000 nM
  NHEJ-attributed indel frequency: 0.532 ± 0.069
[4]; 200 nM
  cell survival: 0.979
[4]; 500 nM
  cell survival: 1.04
[4]; 1000 nM
  cell survival: 0.271
[4]; 2000 nM
  cell survival: 0.0426
[4]; 5000 nM
  cell survival: 0.0118

## CC[C@@]1(O)C(=O)OCc2c1cc1n(c2=O)Cc2cc3c(CN(C)C)c(O)ccc3nc2-1 [Topotecan] (in DMSO)
[1]; 2 nM
  MMEJ-attributed deletion frequency: 1.13 ± 0.065
[1]; 5 nM
  MMEJ-attributed deletion frequency: 1.04 ± 0.1
[1]; 10 nM
  MMEJ-attributed deletion frequency: 0.835 ± 0.1
[1]; 20 nM
  MMEJ-attributed deletion frequency: 0.595 ± 0.26
[1]; 50 nM
  MMEJ-attributed deletion frequency: 0.699 ± 0.15
[2]; 2 nM
  HDR: 1.11 ± 0.042
[2]; 5 nM
  HDR: 1.07 ± 0.049
[2]; 10 nM
  HDR: 0.938 ± 0.035
[2]; 20 nM
  HDR: 0.975 ± 0.16
[2]; 50 nM
  HDR: 0.321 ± 0.15
[3]; 2 nM
  NHEJ-attributed indel frequency: 0.951 ± 0.029
[3]; 5 nM
  NHEJ-attributed indel frequency: 0.936 ± 0.04
[3]; 10 nM
  NHEJ-attributed indel frequency: 0.896 ± 0.032
[3]; 20 nM
  NHEJ-attributed indel frequency: 0.68 ± 0.029
[3]; 50 nM
  NHEJ-attributed indel frequency: 0.625 ± 0.023
[4]; 2 nM
  cell survival: 0.777
[4]; 5 nM
  cell survival: 0.814
[4]; 10 nM
  cell survival: 0.361
[4]; 20 nM
  cell survival: 0.0825
[4]; 50 nM
  cell survival: 0.0185

## C[C@@H]1O[C@@H](O[C@@H]2[C@@H](O)[C@H](OCCc3ccc(O)c(O)c3)O[C@H](CO)[C@H]2OC(=O)/C=C/c2ccc(O)c(O)c2)[C@H](O)[C@H](O)[C@H]1O [Verbascoside] (in DMSO)
[1]; 20 nM
  MMEJ-attributed deletion frequency: 1.01 ± 0.02
[1]; 50 nM
  MMEJ-attributed deletion frequency: 0.993 ± 0.082
[1]; 100 nM
  MMEJ-attributed deletion frequency: 1.06 ± 0.06
[1]; 200 nM
  MMEJ-attributed deletion frequency: 0.976 ± 0.13
[1]; 500 nM
  MMEJ-attributed deletion frequency: 1.02 ± 0.087
[2]; 20 nM
  HDR: 1.1 ± 0.064
[2]; 50 nM
  HDR: 1.13 ± 0.017
[2]; 100 nM
  HDR: 1.024 ± 0.0069
[2]; 200 nM
  HDR: 1.04 ± 0.044
[2]; 500 nM
  HDR: 1.11 ± 0.012
[3]; 20 nM
  NHEJ-attributed indel frequency: 0.964 ± 0.014
[3]; 50 nM
  NHEJ-attributed indel frequency: 1.01 ± 0.033
[3]; 100 nM
  NHEJ-attributed indel frequency: 0.994 ± 0.03
[3]; 200 nM
  NHEJ-attributed indel frequency: 1 ± 0.019
[3]; 500 nM
  NHEJ-attributed indel frequency: 0.975 ± 0.016
[4]; 20 nM
  cell survival: 0.884
[4]; 50 nM
  cell survival: 1.1
[4]; 100 nM
  cell survival: 0.99
[4]; 200 nM
  cell survival: 1.11
[4]; 500 nM
  cell survival: 1.04

## CC[C@]1(O)C[C@@H]2CN(CCc3c([nH]c4ccccc34)[C@@](C(=O)OC)(c3cc4c(cc3OC)N(C)[C@H]3[C@@](O)(C(=O)OC)[C@H](OC(C)=O)[C@]5(CC)C=CCN6CC[C@]43[C@@H]65)C2)C1 [Vinblastine sulfate] (in DMSO)
[1]; 2 nM
  MMEJ-attributed deletion frequency: 1.11 ± 0.049
[1]; 5 nM
  MMEJ-attributed deletion frequency: 1.08 ± 0.057
[1]; 10 nM
  MMEJ-attributed deletion frequency: 1.13 ± 0.55
[1]; 20 nM
  MMEJ-attributed deletion frequency: 0.779 ± 0.3
[1]; 50 nM
  MMEJ-attributed deletion frequency: 0.6333 ± 0.0063
[2]; 2 nM
  HDR: 1.08 ± 0.098
[2]; 5 nM
  HDR: 0.737 ± 0.042
[2]; 10 nM
  HDR: 0.633 ± 0.4
[2]; 20 nM
  HDR: 0.511 ± 0.28
[2]; 50 nM
  HDR: 0.302 ± 0.056
[3]; 2 nM
  NHEJ-attributed indel frequency: 1.04 ± 0.018
[3]; 5 nM
  NHEJ-attributed indel frequency: 0.958 ± 0.12
[3]; 10 nM
  NHEJ-attributed indel frequency: 0.792 ± 0.39
[3]; 20 nM
  NHEJ-attributed indel frequency: 0.606 ± 0.21
[3]; 50 nM
  NHEJ-attributed indel frequency: 0.498 ± 0.064
[4]; 2 nM
  cell survival: 0.687
[4]; 5 nM
  cell survival: 0.117
[4]; 10 nM
  cell survival: 0.0623
[4]; 20 nM
  cell survival: 0.00294
[4]; 50 nM
  cell survival: 0.00452

## CC(O)C(=O)O (stereo not given) [lactate] (in H2O)
[1]; 200 nM
  MMEJ-attributed deletion frequency: 1.01 ± 0.044
[1]; 500 nM
  MMEJ-attributed deletion frequency: 0.849 ± 0.074
[1]; 1000 nM
  MMEJ-attributed deletion frequency: 0.952 ± 0.094
[1]; 2000 nM
  MMEJ-attributed deletion frequency: 1.05 ± 0.096
[1]; 5000 nM
  MMEJ-attributed deletion frequency: 1 ± 0.094
[2]; 200 nM
  HDR: 1.02 ± 0.065
[2]; 500 nM
  HDR: 0.941 ± 0.056
[2]; 1000 nM
  HDR: 0.946 ± 0.091
[2]; 2000 nM
  HDR: 1.01 ± 0.1
[2]; 5000 nM
  HDR: 1.005 ± 0.0083
[3]; 200 nM
  NHEJ-attributed indel frequency: 0.984 ± 0.021
[3]; 500 nM
  NHEJ-attributed indel frequency: 1.02 ± 0.028
[3]; 1000 nM
  NHEJ-attributed indel frequency: 1.04 ± 0.03
[3]; 2000 nM
  NHEJ-attributed indel frequency: 0.998 ± 0.047
[3]; 5000 nM
  NHEJ-attributed indel frequency: 1 ± 0.013
[4]; 200 nM
  cell survival: 1.15
[4]; 500 nM
  cell survival: 1.08
[4]; 1000 nM
  cell survival: 0.963
[4]; 2000 nM
  cell survival: 1.06
[4]; 5000 nM
  cell survival: 1.15

## CC[C@]1(O)C[C@@H]2CN(CCc3c([nH]c4ccccc34)[C@@](C(=O)OC)(c3cc4c(cc3OC)N(C)[C@H]3[C@@](O)(C(=O)OC)[C@H](OC(C)=O)[C@]5(CC)C=CCN6CC[C@]43[C@@H]65)C2)C1 [vinblastine] (in DMSO)
[1]; 2 nM
  MMEJ-attributed deletion frequency: 1.02 ± 0.27
[1]; 5 nM
  MMEJ-attributed deletion frequency: 1.51 ± 0.71
[1]; 10 nM
  MMEJ-attributed deletion frequency: 0.931 ± 0.61
[1]; 20 nM
  MMEJ-attributed deletion frequency: 0.674 ± 0.053
[1]; 50 nM
  MMEJ-attributed deletion frequency: 0.827 ± 0.05
[2]; 2 nM
  HDR: 0.877 ± 0.038
[2]; 5 nM
  HDR: 0.65 ± 0.05
[2]; 10 nM
  HDR: 0.556 ± 0.031
[2]; 20 nM
  HDR: 0.249 ± 0.051
[2]; 50 nM
  HDR: 0.248 ± 0.035
[3]; 2 nM
  NHEJ-attributed indel frequency: 1.07 ± 0.05
[3]; 5 nM
  NHEJ-attributed indel frequency: 0.982 ± 0.17
[3]; 10 nM
  NHEJ-attributed indel frequency: 0.857 ± 0.17
[3]; 20 nM
  NHEJ-attributed indel frequency: 0.415 ± 0.0047
[3]; 50 nM
  NHEJ-attributed indel frequency: 0.557 ± 0.013
[4]; 2 nM
  cell survival: 0.524
[4]; 5 nM
  cell survival: 0.114
[4]; 10 nM
  cell survival: 0.0472
[4]; 20 nM
  cell survival: 0.00549
[4]; 50 nM
  cell survival: 0.0072
